Measurements reported in patent US20230278972A1, “SUBSTITUTED HALOALKYL SULFONANILIDE HERBICIDES” (FMC Corporation, priority 2020, published 2023).

Assays:
[1] = tested on: Ryegrass, Italian (Italian ryegrass, Lolium multiflorum); test: Test A preemergence, Ryegrass, Italian; type: in vivo; conditions: Lolium multiflorum, pre-emergence, 240 h; for pest or weed control at 500 g/ha: read-out: Ryegrass, Italian plant response rating
In short: (§1)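 Test chemicals, formulated in a non-phytotoxic solvent mixture with surfactant, were sprayed postemergence on plants 2 to 10 cm tall at the one- to two-leaf stage. Preemergence treatment was a directed soil spray onto freshly seeded pots. Both used a loam soil and sand blend.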

[2] = tested on: wheat (Triticum aestivum); test: Test A postemergence, wheat; type: in vivo; conditions: Triticum aestivum, post-emergence, 240 h, read-out: Plant response rating, Wheat
In short: (§2)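 Barnyardgrass, wheat and galium were treated postemergence at the one- to two-leaf stage (2 to 10 cm) with chemicals formulated in non-phytotoxic solvent plus surfactant, grown in loam soil–sand pots. Pigweed was sown in the same blend and given a preemergence directed soil spray.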

[3] = tested on: barnyardgrass (Echinochloa crus-galli); test: Test A postemergence, barnyardgrass; type: in vivo; conditions: Echinochloa crus-galli, post-emergence, 240 h, read-out: Plant response rating, Barnyardgrass
In short: as §2

kochia (Bassia scoparia) [4] = test: Test A postemergence, kochia; type: in vivo; conditions: Bassia scoparia, post-emergence, 240 h, read-out: Plant response rating, Kochia
In short: as §1

[5] = tested on: barnyardgrass (Echinochloa crus-galli); test: Test A preemergence, barnyardgrass; type: in vivo; conditions: Echinochloa crus-galli, pre-emergence, 240 h; for pest or weed control at 500 g/ha: read-out: Barnyardgrass plant response rating
In short: as §1

corn (Zea mays) = test: Test A postemergence, corn; type: in vivo; conditions: Zea mays, post-emergence, 240 h; for plant injury at 125 g/ha / plant injury at 500 g/ha: read-out: Plant response rating, Corn
In short: as §1

rice (Oryza sativa) = test: Test B flooded paddy test, rice; conditions: 336 h, read-out: Plant response rating, Rice
[6] = tested on: ducksalad (Heteranthera limosa); test: Test B flooded paddy test, ducksalad; conditions: 336 h, read-out: Plant response rating, Ducksalad
[7] = tested on: pigweed (Amaranthus retroflexus); test: Test A postemergence, pigweed; type: in vivo; conditions: Amaranthus retroflexus, post-emergence, 240 h, read-out: Plant response rating, Pigweed
In short: as §1

[8] = tested on: blackgrass (Alopecurus myosuroides); test: Test A postemergence, blackgrass; type: in vivo; conditions: Alopecurus myosuroides, post-emergence, 240 h, read-out: Plant response rating, Blackgrass
In short: as §1

kochia (Bassia scoparia) [9] = test: Test A preemergence, kochia; type: in vivo; conditions: Bassia scoparia, pre-emergence, 240 h; for pest or weed control at 500 g/ha: read-out: Kochia plant response rating
In short: as §1

[10] = tested on: Foxtail, Giant (giant foxtail, Setaria faberi); test: Test A preemergence, Foxtail, Giant; type: in vivo; conditions: Setaria faberi, pre-emergence, 240 h; for pest or weed control at 500 g/ha: read-out: Foxtail, Giant plant response rating
In short: as §1

[11] = tested on: Ryegrass, Italian (Italian ryegrass, Lolium multiflorum); test: Test A postemergence, Ryegrass, Italian; type: in vivo; conditions: Lolium multiflorum, post-emergence, 240 h, read-out: Plant response rating, Ryegrass, Italian
In short: as §1

[12] = tested on: pigweed (Amaranthus retroflexus); test: Test A preemergence, pigweed; type: in vivo; conditions: Amaranthus retroflexus, pre-emergence, 240 h, 1000 g ai/ha, 0 to 100 scale (0 no effect, 100 complete control), read-out: Plant response rating, Pigweed
In short: as §2

[13] = tested on: barnyardgrass (Echinochloa crus-galli); test: Test B flooded paddy test, barnyardgrass; conditions: 336 h, read-out: Plant response rating, Barnyardgrass
[14] = tested on: galium (catchweed bedstraw, Galium aparine); test: Test A postemergence, galium; type: in vivo; conditions: Galium, post-emergence, 240 h, read-out: Plant response rating, Galium
In short: as §2

[15] = tested on: Foxtail, Giant (giant foxtail, Setaria faberi); test: Test A postemergence, Foxtail, Giant; type: in vivo; conditions: Setaria faberi, post-emergence, 240 h, read-out: Plant response rating, Foxtail, Giant
In short: as §1

[16] = tested on: ragweed (common ragweed, Ambrosia artemisiifolia); test: Test A postemergence, ragweed; type: in vivo; conditions: Ambrosia artemisiifolia, post-emergence, 240 h, read-out: Plant response rating, Ragweed
In short: as §1

[17] = tested on: ragweed (common ragweed, Ambrosia artemisiifolia); test: Test A preemergence, ragweed; type: in vivo; conditions: Ambrosia artemisiifolia, pre-emergence, 240 h; for pest or weed control at 125 g/ha: read-out: Plant response rating, Ragweed; for pest or weed control at 500 g/ha: read-out: Ragweed plant response rating
In short: as §1

[18] = Postemergence, 1000 g ai/ha, visual injury, 0 to 100 scale (0 no effect, 100 complete control), approx. 10 days
[19] = read-out: Plant response rating, Ryegrass, Italian
[20] = read-out: Plant response rating, Barnyardgrass
[21] = read-out: Plant response rating, Kochia
[22] = read-out: Plant response rating, Foxtail, Giant

Structure (SMILES) | plant injury at 250 g/ha (rice (Oryza sativa)) [%] | pest or weed control at 250 g/ha [6] [%] | pest or weed control at 250 g/ha [13] [%] | pest or weed control at 125 g/ha [1, 19] [%] | pest or weed control at 500 g/ha [1] [%] | plant injury at 125 g/ha [2] [%] | plant injury at 500 g/ha [2] [%] | pest or weed control at 125 g/ha [17] [%] | pest or weed control at 500 g/ha [17] [%] | pest or weed control at 125 g/ha [3] [%] | pest or weed control at 500 g/ha [3] [%] | pest or weed control at 125 g/ha (kochia (Bassia scoparia) [4]) [%] | pest or weed control at 500 g/ha (kochia (Bassia scoparia) [4]) [%] | pest or weed control at 500 g/ha [5] [%] | pest or weed control at 125 g/ha [5, 20] [%] | plant injury at 125 g/ha (corn (Zea mays)) [%] | plant injury at 500 g/ha (corn (Zea mays)) [%] | pest or weed control at 125 g/ha [7] [%] | pest or weed control at 500 g/ha [7] [%] | pest or weed control at 125 g/ha [8] [%] | further results
Cc1cc(C)c(C(=O)N2CCOCC2)cc1NS(=O)(=O)C(F)(F)F [Compound 6, N-[2,4-Dimethyl-5-(4-morpholinylcarbonyl)phenyl]-1,1,1-trifluoromethanesulfonamide] | 0 | 0 | 0 |  |  |  |  |  |  |  |  |  |  |  |  |  |  |  |  |  | pest or weed control at 1000 g/ha ([1]; Preemergence, 1000 g ai/ha, 0 to 100 scale (0 no effect, 100 complete control), read-out: Plant response rating, Ryegrass, Italian): 100%; plant injury at 1000 g/ha [2, 18]: 60%; pest or weed control at 1000 g/ha [3, 18]: 90%; pest or weed control at 1000 g/ha (kochia (Bassia scoparia) [4]; [18]): 80%; pest or weed control at 1000 g/ha ([5]; Preemergence, 1000 g ai/ha, 0 to 100 scale (0 no effect, 100 complete control), read-out: Plant response rating, Barnyardgrass): 100%; Corn plant response rating (crop injury, 0 = no effect, 100 = complete kill) at 1000 g/ha (corn (Zea mays); [18]): 60%; pest or weed control at 1000 g/ha [7, 18]: 100%; pest or weed control at 1000 g/ha [8, 18]: 60%; pest or weed control at 1000 g/ha (kochia (Bassia scoparia) [9]; Preemergence, 1000 g ai/ha, 0 to 100 scale (0 no effect, 100 complete control), read-out: Plant response rating, Kochia): 100%; pest or weed control at 1000 g/ha ([10]; Preemergence, 1000 g ai/ha, 0 to 100 scale (0 no effect, 100 complete control), read-out: Plant response rating, Foxtail, Giant): 100%; pest or weed control at 1000 g/ha [11, 18]: 80%; pest or weed control at 1000 g/ha [12]: 100%; pest or weed control at 1000 g/ha [14, 18]: 90%; pest or weed control at 1000 g/ha [15, 18]: 90%; pest or weed control at 1000 g/ha [16, 18]: 50%
Cc1cc(C)c(N(COC(=O)C(C)(C)C)S(=O)(=O)C(F)(F)F)cc1N1CCC2(CCCCC2)C1=O [Compound 268, [[2,4-Dimethyl-5-(1-oxo-2-azaspiro[4.5]dec-2-yl)phenyl][(trifluoromethyl)sulfonyl]amino]methyl 2,2-dimethylpropanoate] | 0 | 70 | 40 | 0 | 60 | 50 | 70 | 40 | 90 | 50 | 80 | 30 | 40 | 50 | 40 | 50 | 70 | 60 | 80 | 20 | pest or weed control at 500 g/ha [8]: 40%; pest or weed control at 500 g/ha (kochia (Bassia scoparia) [9]): 70%; pest or weed control at 125 g/ha (kochia (Bassia scoparia) [9]; [21]): 70%; pest or weed control at 500 g/ha [10]: 70%; pest or weed control at 125 g/ha [10, 22]: 50%; pest or weed control at 125 g/ha [11]: 40%; pest or weed control at 500 g/ha [11]: 60%; pest or weed control at 125 g/ha [14]: 90%; pest or weed control at 500 g/ha [14]: 90%; pest or weed control at 125 g/ha [15]: 0%; pest or weed control at 500 g/ha [15]: 30%; pest or weed control at 125 g/ha [16]: 70%; pest or weed control at 500 g/ha [16]: 90%
Cc1cc(C)c(N2CCC3(CCCCC3)C2=O)cc1NS(=O)(=O)C(F)(F)F [Compound 278, N-[2,4-Dimethyl-5-(1-oxo-2-azaspiro[4.5]dec-2-yl)phenyl]-1,1,1-trifluoromethanesulfonamide] | 15 | 85 | 0 | 100 | 100 | 60 | 70 | 90 | 100 | 20 | 80 | 30 | 70 | 100 | 60 | 0 | 30 | 60 | 90 | 0 | pest or weed control at 500 g/ha [8]: 50%; pest or weed control at 500 g/ha (kochia (Bassia scoparia) [9]): 100%; pest or weed control at 125 g/ha (kochia (Bassia scoparia) [9]; [21]): 90%; pest or weed control at 500 g/ha [10]: 100%; pest or weed control at 125 g/ha [10, 22]: 60%; pest or weed control at 125 g/ha [11]: 30%; pest or weed control at 500 g/ha [11]: 80%; pest or weed control at 125 g/ha [14]: 90%; pest or weed control at 500 g/ha [14]: 90%; pest or weed control at 125 g/ha [15]: 0%; pest or weed control at 500 g/ha [15]: 20%; pest or weed control at 125 g/ha [16]: 40%; pest or weed control at 500 g/ha [16]: 60%
